Reference: PubChem BioAssay AID2060511 (Molecular Pharmacology Branch, DTP, NCI, 2025)

Tested on: 422866-222-R5-J1-PDC spheroids with HUVEC/MSC, viability
Assay: Anticancer human tumor 422866-222-R5-J1-PDC patient-derived pancreatic adenocarcinoma cell line growth inhibition [GQUAD]
Settings: for IC50: curve of first compound; for viability, T/C: stronger effect = lower value
Procedure, shortened: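 Viability of tumor cells grown as complex spheroids with endothelial and stromal cells, exposed to drug combinations. Top concentration at or near clinical Cmax (else 10 microM), diluted in half-log increments.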

[1] = second compound 0.0316 µM, first compound 0.0316 µM
[2] = second compound 0.0316 µM, first compound 0.1 µM
[3] = second compound 0.0316 µM, first compound 0.316 µM
[4] = second compound 0.0316 µM, first compound 1 µM
[5] = second compound 0.0316 µM, first compound 3.16 µM
[6] = second compound 0.0316 µM, first compound 10 µM
[7] = second compound 0.1 µM, first compound 0.0316 µM
[8] = second compound 0.1 µM, first compound 0.1 µM
[9] = second compound 0.1 µM, first compound 0.316 µM
[10] = second compound 0.1 µM, first compound 1 µM
[11] = second compound 0.1 µM, first compound 3.16 µM
[12] = second compound 0.1 µM, first compound 10 µM
[13] = second compound 0.316 µM, first compound 0.0316 µM
[14] = second compound 0.316 µM, first compound 0.1 µM
[15] = second compound 0.316 µM, first compound 0.316 µM
[16] = second compound 0.316 µM, first compound 1 µM
[17] = second compound 0.316 µM, first compound 3.16 µM
[18] = second compound 0.316 µM, first compound 10 µM
[19] = second compound 1 µM, first compound 0.0316 µM
[20] = second compound 1 µM, first compound 0.1 µM
[21] = second compound 1 µM, first compound 0.316 µM
[22] = second compound 1 µM, first compound 1 µM
[23] = second compound 1 µM, first compound 3.16 µM
[24] = second compound 1 µM, first compound 10 µM
[25] = second compound 3.16 µM, first compound 0.0316 µM
[26] = second compound 3.16 µM, first compound 0.1 µM
[27] = second compound 3.16 µM, first compound 0.316 µM
[28] = second compound 3.16 µM, first compound 1 µM
[29] = second compound 3.16 µM, first compound 3.16 µM
[30] = second compound 3.16 µM, first compound 10 µM
[31] = second compound 10 µM, first compound 0.0316 µM
[32] = second compound 10 µM, first compound 0.1 µM
[33] = second compound 10 µM, first compound 0.316 µM
[34] = second compound 10 µM, first compound 1 µM
[35] = second compound 10 µM, first compound 3.16 µM
[36] = second compound 10 µM, first compound 10 µM
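Note: spheroids exposed to compounds for seven days before reading.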
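Throughout, for viability, T/C: percent viability relative to DMSO vehicle control taken as 100%.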

SMILES: CC1COCCN1c1cc(C2(S(C)(=N)=O)CC2)nc(-c2ccnc3[nH]ccc23)n1 (centres undefined) + Cc1cnc(CNC(=O)c2c(=O)c3ccc(N4CCCN(C)CC4)nc3n3c2sc2ccccc23)cn1
- IC50 (second compound 0.0316 µM): > 10000 nM
- IC50 (second compound 0.1 µM): > 10000 nM
- IC50 (second compound 0.316 µM): > 10000 nM
- IC50 (second compound 1 µM): > 10000 nM
- IC50 (second compound 3.16 µM): > 10000 nM
- IC50 (second compound 10 µM): > 10000 nM
- viability, T/C [1]: 102%
- viability, T/C [2]: 103%
- viability, T/C [3]: 95.1%
- viability, T/C [4]: 80.8%
- viability, T/C [5]: 71%
- viability, T/C [6]: 50.7%
- viability, T/C [7]: 104%
- viability, T/C [8]: 102%
- viability, T/C [9]: 96.2%
- viability, T/C [10]: 80%
- viability, T/C [11]: 67.7%
- viability, T/C [12]: 53.6%
- viability, T/C [13]: 91.7%
- viability, T/C [14]: 98.5%
- viability, T/C [15]: 99.5%
- viability, T/C [16]: 96.2%
- viability, T/C [17]: 77.4%
- viability, T/C [18]: 61.2%
- viability, T/C [19]: 83.2%
- viability, T/C [20]: 92.8%
- viability, T/C [21]: 103%
- viability, T/C [22]: 86.3%
- viability, T/C [23]: 72.8%
- viability, T/C [24]: 77.6%
- viability, T/C [25]: 93.9%
- viability, T/C [26]: 96.6%
- viability, T/C [27]: 90.2%
- viability, T/C [28]: 94.7%
- viability, T/C [29]: 78.1%
- viability, T/C [30]: 71.6%
- viability, T/C [31]: 89.7%
- viability, T/C [32]: 92.3%
- viability, T/C [33]: 93.1%
- viability, T/C [34]: 87.7%
- viability, T/C [35]: 82%
- viability, T/C [36]: 64.7%

SMILES: COc1ccc([C@@H](O)c2cc(-c3ncnc4cc(N5CCOCC5)ccc34)c(F)cc2Cl)nn1 + Cc1cnc(CNC(=O)c2c(=O)c3ccc(N4CCCN(C)CC4)nc3n3c2sc2ccccc23)cn1
- IC50 (second compound 0.0316 µM): 1390 nM
- IC50 (second compound 0.1 µM): 2050 nM
- IC50 (second compound 0.316 µM): 3660 nM
- IC50 (second compound 1 µM): 2360 nM
- IC50 (second compound 3.16 µM): 1940 nM
- IC50 (second compound 10 µM): 1800 nM
- viability, T/C [1]: 106%
- viability, T/C [2]: 82.7%
- viability, T/C [3]: 78.8%
- viability, T/C [4]: 47.9%
- viability, T/C [5]: 41.9%
- viability, T/C [6]: 35.5%
- viability, T/C [7]: 94.8%
- viability, T/C [8]: 87.4%
- viability, T/C [9]: 68.5%
- viability, T/C [10]: 57.1%
- viability, T/C [11]: 47.2%
- viability, T/C [12]: 39.3%
- viability, T/C [13]: 97.3%
- viability, T/C [14]: 85.3%
- viability, T/C [15]: 72.8%
- viability, T/C [16]: 60.2%
- viability, T/C [17]: 54%
- viability, T/C [18]: 40.4%
- viability, T/C [19]: 97.3%
- viability, T/C [20]: 87.4%
- viability, T/C [21]: 83.4%
- viability, T/C [22]: 62.8%
- viability, T/C [23]: 45.1%
- viability, T/C [24]: 35.5%
- viability, T/C [25]: 90.9%
- viability, T/C [26]: 80.1%
- viability, T/C [27]: 78.5%
- viability, T/C [28]: 57.6%
- viability, T/C [29]: 43.6%
- viability, T/C [30]: 34%
- viability, T/C [31]: 81.9%
- viability, T/C [32]: 78%
- viability, T/C [33]: 70.3%
- viability, T/C [34]: 55.9%
- viability, T/C [35]: 44.1%
- viability, T/C [36]: 31.6%
